{"source": "paper PMC7669869", "about": "“AdipoR1/AdipoR2 dual agonist recovers nonalcoholic steatohepatitis and related fibrosis via endoplasmic reticulum-mitochondria axis” (Nature Communications, 2020)", "key": {"HFD induced NASH mice [1]": {"system": "HFD induced NASH mice", "test": "HFD mice: serum and liver biochemical assays (ALT, FFA, LDL-C, hepatic TG, glycogen)", "format": "in vivo, mouse", "procedure": "Male C57BL/6J mice of 6–8 weeks of age (20–24 g) were used in these experiments including the NAFLD model and liver fibrosis model. The mice were purchased from Guangdong Medical Laboratory Animal Center and housed in standard isolator cages and maintained on a room temperature of 25 °C and a 12 h:12 h light/dark cycle. At the end of the experiments, mice were fasted 8 h prior to sacrifice. Liver tissue and/or epididymal adipose tissue were flash frozen in liquid nitrogen (with or without RNAlater (TransGen Biotech, China)) and stored at −80 °C for future use, or fixed in 10% paraformaldehyde for histological assays. Blood samples were obtained from the posterior venous plexus of the eyes of anesthetized mice, Blood was separated by centrifugation at 1000g for 15 min Serum was then stored at −80 °C. The ethical approval has been obtained from Animal Care and Use Committee of the Sun Yat-sen University. All animals were maintained in pathogen-free conditions and cared for in accordance with policies and certification of the Association for Assessment and Accreditation of Laboratory Animal Care International (AAALAC International).\nThe NASH model was conducted with feeding a HFD for 16 weeks combine with a MCD diet (Methionine/Choline Deficient Diet, Medicience, China) in the last 4 weeks. […]\nThe levels of ALT, AST, TC and TG in serum were determined using certain commercial assay kits (Nanjing Jiancheng Bioengineering Institute, China). Fasting adiponectin and insulin were quantified in plasma samples using corresponding commercially available Elisa kits (Cloud-Clone Crop, USA).\nThe levels of TG and HYP in liver tissue were detected with certain commercial assay kit (Nanjing Jiancheng Bioengineering Institute, China). […] The cryostat-cut slices were stained with freshly prepared Oil Red O working solution for 7 min Two independent experimenters who were blinded to the treatment evaluated the staining slides and analyzed the score for steatosis, glucogen accumulation and collagen proliferation area."}, "[2]": {"system": "CCl4 induced liver fibrosis mice", "test": "CCl4 induced liver fibrosis mice: liver appearance, body weight, HE, Sirius red, IHC (αSMA, COL1α1, CD68)", "format": "in vivo, mouse", "settings": "in words", "procedure": "Male mice liver fibrosis was induced by intraperitoneal injection of 20% CCl4 (Sigma, USA) diluted in corn oil (Aladdin, China) every 3 days for 6 weeks (n = 6; 5 ml kg^−1 body weight). Mice injected with equivalent volume of corn oil serves as control group (n = 6). Liver fibrosis mice treated with JT003 for 3 weeks were used to evaluated the pharmacological effects (n = 6; 500 μg kg^−1; daily intraperitoneal injection).\n(§1) The levels of TG and HYP in liver tissue were detected with certain commercial assay kit (Nanjing Jiancheng Bioengineering Institute, China). Formalin-fixed liver tissues were embedded in paraffin, sectioned into 5 μm slices. After deparaffinization and rehydration of the section slices, they were stained with Haematoxylin and Eosin or Periodic Acid-Schiff. For the detection of liver collagen content, Sirius Red staining for collagen was performed. OCT-embedded frozen liver tissues were sectioned into 12 μm slices, and Oil Red O staining was performed. The cryostat-cut slices were stained with freshly prepared Oil Red O working solution for 7 min Two independent experimenters who were blinded to the treatment evaluated the staining slides and analyzed the score for steatosis, glucogen accumulation and collagen proliferation area.\nParaffin-embedded liver slices were deparaffinized and rehydrated, antigen retrieval was performed under the high pressure and temperature in 0.01 M sodium citrate buffer (pH = 6.0). To quench the endogenous peroxidase activity, the slices were then incubated with 1% hydrogen peroxide in methanol for 10 min in room temperature. Then slices were incubated with corresponding primary antibodies. After washing, HRP-conjugated secondary antibodies specific to the species of the primary antibodies were used. After the section were developed with DAB, hematoxylin staining was performed for cell counting."}, "HFD induced NASH mice [3]": {"system": "HFD induced NASH mice", "test": "HFD mice: liver histology (HE, PAS, Oil Red O)", "format": "in vivo, mouse", "settings": "JT003 500 μg kg−1 i.p. daily 4 weeks, in words", "procedure": "(§2) The NASH model was conducted with feeding a HFD for 16 weeks combine with a MCD diet (Methionine/Choline Deficient Diet, Medicience, China) in the last 4 weeks. Mice administered a MCS diet (Methionine/Choline Sufficient Diet, Medicience, China) serves as control group. NAFLD or NASH mice treated with JT003 for 4 weeks were used to evaluate the pharmacological effects (n = 6; 500 μg kg^−1; daily intraperitoneal injection). Food and water were provided ad libitum. The body weight of mice was examined every 3 days. The diet was renewed every 7 days. JT003 was diluted in PBS.\nas §1"}, "HFD + MCD diet NASH mice": {"system": "HFD + MCD diet NASH mice", "test": "HFD combined with MCD diet NASH mice: weight gain, HE steatosis area", "format": "in vivo, mouse", "settings": "HFD 16 weeks + MCD diet last 4 weeks; compared with ADP355; in words", "procedure": "as §2\nas §1, with “OCT-embedded frozen liver tissues were sectioned into 12 μm slices, and Oil Red O staining was performed.” left out"}, "AdipoR1 [4]": {"target": "T1, AdipoR1 (Homo sapiens, UniProt Q96A54)", "T1 construct": "His; host or cells: HEK293", "T1 sequence (Q96A54 1-375)": "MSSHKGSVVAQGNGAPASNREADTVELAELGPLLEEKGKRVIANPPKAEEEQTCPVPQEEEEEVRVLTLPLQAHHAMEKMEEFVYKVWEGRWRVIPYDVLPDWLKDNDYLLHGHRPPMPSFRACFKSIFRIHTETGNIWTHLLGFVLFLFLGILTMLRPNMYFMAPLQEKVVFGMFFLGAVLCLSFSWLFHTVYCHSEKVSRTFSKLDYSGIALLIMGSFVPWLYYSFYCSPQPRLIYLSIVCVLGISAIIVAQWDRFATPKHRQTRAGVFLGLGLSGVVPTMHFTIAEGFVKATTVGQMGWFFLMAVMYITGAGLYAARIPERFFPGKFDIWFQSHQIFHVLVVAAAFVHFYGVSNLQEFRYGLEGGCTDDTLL", "test": "HTRF binding, AdipoR1 overexpression HEK293 cells", "settings": "in words", "procedure": "The expression plasmid of AdipoR1 and AdipoR2 were synthesized and codon optimized by Genescript (Nanjing, China) for their expression in HEK293 cell line. The concentration of FITC-JT003 was 0, 0.1, 0.25, 0.5, 1, 2.5 or 5 μM respectively. Unlabeled peptide JT003 was used as the control to measure the non-specific signal. 10E4 AdipoR1 and AdipoR2 overexpression cells, anti-His-Tb (ThermoFisher Scientific, USA) and JT003-FITC were added into a 384-well plate, with a total volume of 25μl. The mixtures were incubated at room temperature for 30 min in the dark. Fluorescent values at 520 nm and 620 nm were measured for Kd calculation."}, "AdipoR1 [5]": {"target": "T1, AdipoR1", "test": "Competition binding assay vs globular adiponectin (western blot), AdipoR1 overexpression cells", "settings": "JT003 4 h, then 50 μg ml−1 gAd155–161 4 h, in words", "procedure": "Different concentration of JT003 were incubated with AdipoR1 or AdipoR2 overexpression HEK293 cell line for 4 h. After that, 50 μg ml^−1 gAd155–161 were added for another 4 h incubation. The binding of gAd155–161 to the cells were measured via western blot assay."}}, "note": "Non-standard residues stand in square brackets, D forms with d. Residues, ends and D or L forms follow the SMILES beside them. Nva = CCC[C@H](N)C(=O)O"}
{"smiles": "CCC[C@H](NC(=O)[C@@H]1CCCN1)C(=O)N[C@@H](CC(C)C)C(=O)N[C@@H](Cc1ccc(O)cc1)C(=O)N[C@@H](Cc1ccc(O)cc1)C(=O)N[C@@H](Cc1ccccc1)C(=O)N[C@@H](C)C(N)=O", "note": "[JT003] (H-P[Nva]LYYFA-NH2)", "values": [{"measurement": "decrease of the circulating lipid in the HFD group", "setting": "HFD induced NASH mice [1]; JT003 500 μg kg−1, in words", "result": "reverted"}, {"measurement": "Hepatocytes TG and serum LDL-C contents", "setting": "HFD induced NASH mice [1]; JT003 500 μg kg−1 i.p. daily 4 weeks, in words", "result": "obviously reduced"}, {"measurement": "ALT level", "setting": "HFD induced NASH mice [1]; JT003 500 μg kg−1 i.p. daily 4 weeks, vs HFD, in words", "result": "reduced"}, {"measurement": "inflammation, necrosis and fibrosis area (HE and sirius red staining)", "setting": "[2]; CCl4 induced liver fibrosis mice, administration dosages of 0.5 mg kg−1 and 2 mg kg−1", "result": "significantly decreased"}, {"measurement": "liver adhesion (dissected assays)", "setting": "[2]; CCl4 induced liver fibrosis mice", "result": "reduced"}, {"measurement": "IHC staining of CD68 (macrophage infiltration)", "setting": "[2]; CCl4 mice, JT003 500 μg kg−1", "result": "markedly reduced the inflammation"}, {"measurement": "immunohistochemical staining for αSMA and COL1α1", "setting": "[2]; CCl4 mice, JT003 500 μg kg−1", "result": "confirmed the improvement of liver fibrosis"}, {"measurement": "glycogen over accumulation (PAS staining and hepatocyte glycogen analysis)", "setting": "HFD induced NASH mice [3]", "result": "largely eliminated"}, {"measurement": "lipid droplets in the liver (Oil red o staining)", "setting": "HFD induced NASH mice [3]", "result": "remarkably decreased lipid droplets"}, {"measurement": "steatosis and inflammation area (HE staining)", "setting": "HFD induced NASH mice [3]", "result": "decreased"}, {"measurement": "lipid accumulation in HFD combine with MCD diet NASH mouse model", "setting": "HFD + MCD diet NASH mice", "result": "inhibited lipid accumulation significantly with a 20 times lower dosage"}, {"measurement": "Kd value for AdipoR1 compared to JT006 and ADP355", "setting": "AdipoR1 [4]", "result": "significantly lower Kd value"}, {"measurement": "competitive binding to globular adiponectin, AdipoR1 overexpression cells", "setting": "AdipoR1 [5]", "result": "more JT003 cause less globular adiponectin binding"}]}
